Tests used:
[1] = system: MT4; assay: Cytotoxic concentration required to reduce the viability of normal uninfected MT-4 cells by 50%; assay type: functional, Homo sapiens
[2] = system: MT4; assay: Effective concentration achieving 50% protection of MT-4 cells against the cytopathic effect of HIV-1; assay type: functional, cell-based, Homo sapiens
[3] = Selectivity index is the ratio of CC50 to EC50; assay type: functional
[4] = target: Human immunodeficiency virus type 1 reverse transcriptase (Human immunodeficiency virus 1, UniProt Q72547); assay: Compound was evaluated for the 50% inhibitory concentration on human immunodeficiency virus associated reverse transcriptase

SMILES	CC50 [1]	EC50 ([2]; mt4)	SI [3]	CC50 ([1]; Homo sapiens, MT4)	EC50 ([2]; Homo sapiens, MT4)	IC50 [4]
Cc1cn([C@H]2C[C@H](F)[C@@H](COCP(=O)(O)OP(=O)(O)OP(=O)(O)O)O2)c(=O)[nH]c1=O (stereo in doubt; 30)	> 500 µM	100 µM	> 5	–	–	–
CCOP(=O)(O)COC[C@@H]1CC[C@H](N2CCC(=N)NC2=O)O1	–	–	–	> 500 µM	> 500 µM	–
Cc1cn([C@H]2CC[C@@H](COCP(=O)(O)O)O2)c(=O)[nH]c1=O	–	–	> 1	> 500 µM	500 µM	–
Cc1cn([C@H]2C[C@H](N)[C@@H](COCP(=O)(O)O)O2)c(=O)[nH]c1=O	–	–	> 1	> 500 µM	> 500 µM	–
Cc1cn([C@H]2C[C@H](F)[C@@H](COCP(=O)(O)O)O2)c(=O)[nH]c1=O	–	–	19	17.3 µM	0.9 µM	–
O=c1ccn([C@H]2CC[C@@H](COCP(=O)(O)O)O2)c(=O)[nH]1	–	–	> 5	> 500 µM	90 µM	–
Cc1cn([C@H]2C[C@H](N=[N+]=[N-])[C@@H](COCP(=O)(O)OP(=O)(O)OP(=O)(O)O)O2)c(=O)[nH]c1=O	–	–	–	0.023 µM	1.15 µM	–
Cc1cn([C@H]2C[C@H](N=[N+]=[N-])[C@@H](COCP(=O)(O)O)O2)c(=O)[nH]c1=O	–	–	125	161 µM	1.28 µM	–
Cc1cn([C@H]2C[C@H](F)[C@@H](CO)O2)c(=O)[nH]c1=O [ALOVUDINE]	–	–	197	–	0.001 µM	–
CC1CN([C@H]2C[C@H](N=[N+]=[N-])[C@@H](COCP(=O)(O)OP(=O)(O)OP(=O)(O)O)O2)C(=O)NC1=O (some centres undefined)	–	–	–	–	–	322 µM
Cc1cn([C@H]2C[C@H](N=[N+]=[N-])[C@@H](CO)O2)c(=O)[nH]c1=O [ZIDOVUDINE]	–	–	1600	4.8 µM	0.003 µM	–
CO[C@H]1C[C@H](n2cc(C)c(=O)[nH]c2=O)O[C@@H]1COCP(=O)(O)O	–	–	> 1	> 500 µM	500 µM	–
Nc1ccn([C@H]2CC[C@@H](COCP(=O)(O)O)O2)c(=O)n1	–	–	> 1	> 500 µM	> 500 µM	–
